SMILES	melting point [°C]
CCOC(=O)c1cnc2c(cnn2CC)c1NN=C(C)CC#N	190 to 191
NC(=O)N1CCC(OCCN2CCCCC2)C1 (configuration not stated)	134 to 136
Cn1cc(C2=C(c3cc[nH]c3)C(=O)NC2=O)c2ccccc21	240 to 241
CC1(c2ccccc2)CCC(=O)C=C1C(=O)O (racemic)	206
COC(=O)CCCC(=O)c1ccc(O)c(O)c1	104 to 106
CN(C)c1cc(CO)ncc1F	80 to 82
CCOP(=O)(CC1(O)CC=Cc2ccccc21)OCC (configuration not stated)	120 to 121
COc1cc(Cc2cnc(NCCSCc3csc(CN(C)C)n3)[nH]c2=O)ccn1	79 to 80
CCCN(CCC)c1ccc(S(=O)(=O)NCCCCC(=O)O)cc1	95 to 98
N#Cc1ccc(C(=C2CCCC2)c2ncc[nH]2)cc1	108 to 110
Fc1cc(Cl)c2ccc(C(F)(F)F)cc2n1	94 to 95
CC(C)(C)c1nc2ccc(Cl)nn2n1	128 to 130
Cc1cc(Cl)cc(C(=O)CC(=O)C2CCCCC2)c1O	76 to 77
CC(=O)N1c2c(ccn3c(C)c(C)nc23)[C@@H](O)[C@H](OC(=O)C(C)(C)C)[C@H]1c1ccccc1	103 to 105
CNc1ncccc1C(=O)Nc1ccc2c(c1)-c1c(c(C(N)=O)nn1-c1ccc3c(c1)OCO3)CC2	273 to 275
O=C(O)/C=C1\Cc2ccccc2C1=O	201 to 203
CCCCNC(=O)CC(=O)Nc1ccc(Br)cc1C	123 to 125
COc1ccc(I)cc1CCCO	68 to 70
O=C1c2cc(Cl)ccc2-n2cnc(Cl)c2[C@@H]2CCCN12	209 to 210
CS(=O)(=O)N=C(NCC(=O)O)Nc1ccc(C#N)cc1	170
O=C(CC1CC2CCC1C2)NCC1CCN(c2ncccn2)CC1 (configuration not stated)	121 to 126
O=CC=Cc1cn(Cc2cccc([N+](=O)[O-])c2)nn1	136 to 140
CCOC(=O)C(C)CSCC(NC(=O)CCC(N)C(=O)O)C(=O)NCC(=O)O (configuration not stated)	193 to 194

SMILES	melting point [°C]
O=C1C(=O)c2ccccc2C2=C1SCC1(CCOCC1)O2	195 to 197
NCc1cccnc1C1CCN(c2cc3c(cc2F)c(=O)c(C(=O)O)cn3C2CC2)C1 (configuration not stated)	246 to 248
O=C(O)C1=Cc2cc(C(=O)Cc3ccccc3)ccc2OC1C(F)(F)F (configuration not stated)	159 to 164
CCOC(=O)C1(c2cccs2)CC(CC)=NNC1C (configuration not stated)	127
CC1C(c2ccccc2)NC(=S)N1O (configuration not stated)	202
OC(Cc1ccccc1Cl)(Cn1cncn1)C1(Cl)CC1 (configuration not stated)	107
O=C1NC(=O)C(c2c3n(c4ccccc24)CCC(CO)C3)=C1c1cccc(C(F)(F)F)c1 (configuration not stated)	77 to 79
Nc1c(Cl)cccc1SSc1cccc(Cl)c1N	87 to 88
CN(CCCC(C(N)=O)(c1ccccc1)c1ccccc1)CCc1ccc2c(c1)OCO2	89 to 90
NC(=O)c1ccc2[nH]cc(CCCCN3CC=C(c4ccccc4)CC3)c2c1	200 to 205
NNc1ccc(-c2nnn(Cc3ccccc3)n2)cc1	182 to 185
CCCCC(c1cc(F)ccc1F)S(=O)c1ccc(Cl)cc1 (configuration not stated)	108 to 109
CC(C)(C)NS(=O)(=O)c1c(CCl)nc2ccccn12	180 to 182
COc1ccc(Cn2cc[nH]c2=S)cc1F	156 to 157
CCCCCCCCCCCCOc1c(OC)cc(N)c2nccc(C)c12	53 to 55
CCCc1cn(C)c2c(=O)[nH]c(-c3cc(S(=O)(=O)N4CCN(CCCOC(=O)[C@@H](NC(=O)OC(C)(C)C)C(C)C)CC4)ccc3OCC)nc12	132 to 134
CN(C)c1ccc(C=C2C=C(C(C)(C)C)C(=O)C(C(C)(C)C)=C2)cc1	175
CCCCc1nn(-c2cc(NC(=O)CC)ccc2Cl)c(=O)n1Cc1ccc(-c2ccccc2S(=O)(=O)NC(=O)c2ccccc2Cl)cc1F	> 152
CN1c2ccccc2C(c2ccccc2Br)=Nc2cccnc21	139 to 140
CN(C)NC(=O)C(C)(C)C	120 to 122
NC(=O)c1nnsc1NCCCCCCCCCCCCCCc1ccccc1	79 to 81
CCc1cc(C=O)ccc1N=C1SCC2(CCCC2)N1C1CCCC1	104 to 105
CCCc1nc(S)nc(O)c1Cc1ccc(-c2ccccc2C#N)cc1	191

SMILES	melting point [°C]
CC(C)(C)OC(=O)Nc1ncc(F)s1	157 to 159
Cc1nc(C)c(Cl)c(NCc2ccc(OCCn3c([N+](=O)[O-])cnc3C)c(Cl)n2)n1	206 to 208
CC(COc1c(-c2ccccc2)c(=O)oc2ccccc12)CN1CCOCC1 (configuration not stated)	113
Cc1cc2ncnn2nc1OCC(C)(C)CS(N)(=O)=O	216 to 218
CS(=O)(=O)Nc1cccc(Nc2nc(NCC(O)CO)c3nc[nH]c3n2)c1 (configuration not stated)	164 to 168
CCCCCCCCCCC=CCc1c[nH]c(C=O)c1	29 to 32
O=C(CCCC1CCN(Cc2cccc(O)c2)CC1)c1ccc2c(c1)CCN(Cc1ccccc1)CC2	88 to 94
CCCCCCC1=CC(O)(C(Br)Br)N(c2ccccc2)C1=O (configuration not stated)	43 to 45
OC1CCN(c2nnc(Cl)c3ccccc23)CC1	139 to 142
O=C(O)C(Cc1c[nH]cn1)N1C(=O)c2ccccc2C1=O (configuration not stated)	280 to 285
CN1C(O)=C(C(=O)Nc2ccccc2Cl)c2cscc2S1(=O)=O	152 to 155
O=S(=O)(F)c1ccc(OCc2ccccc2)nn1	85 to 86
Nc1ncnc2cc(-c3ccc(C(F)(F)F)cc3)sc12	181 to 194
CCc1cc(OC)cc(=O)o1	54 to 55
CC(=O)OC1=C(c2nnc(C)o2)N(C)S(=O)(=O)c2ccccc21	188 to 190
CC(=O)Oc1ccc2c(c1Cl)Sc1ccccc1N2	173
CNC(=O)NS(=O)(=O)c1ccccc1OC(Cl)=CCl	225 to 226
CN(CCc1ccc(Nc2ncc3c(n2)-c2ccccc2C(c2ccc(Cl)c(Cl)c2)C3)cc1)C1CCCCC1 (configuration not stated)	130 to 131
O=c1cc(CBr)n(Cc2ccccc2)cc1OCCC12CC3CC(CC(C3)C1)C2	200 to 203
CCOC(=O)Nc1cccc(CBr)c1C(=O)OCC	70 to 72
O=C(O)c1cnc(-c2ccccc2)c2ccccc12	215 to 217
CC(C)(C)OC(=O)N1CCOC[C@H]1CC(=O)O	82
CCCn1nc(SC2CCC(CC(=O)O)CC2)c(C(=O)O)c1Cc1cc2c(cc1Cl)OCO2 (configuration not stated)	178

Continued, values first:

melting point [°C]	SMILES
220	O=C(O)c1ccc(C2OC23Cc2ccccc2C3=O)cc1 (configuration not stated)
116 to 118	O=C1c2ccc(O)cc2C(=O)N1c1ccccc1
146 to 152	COc1cccc(N(CCN2CCC(C(=O)c3ccc(F)cc3)CC2)C(=O)c2ccc(NC(C)=O)cc2)c1
166 to 168	COC(=O)C1CC(C#N)(c2cccc3ccccc23)CCC1=O (configuration not stated)
173	C=Cc1cc(CC(=O)O)ccc1OCc1ccc2ccccc2n1
292 to 294	O=C(O)c1ccc(-c2cc3ccccc3o2)cc1
154 to 155	COC(=O)C1=C(C)NC(C)=C(C(=O)OC)C1c1cc([N+](=O)[O-])ccc1OCCCCNCC(O)COc1ccc(OC)cc1 (configuration not stated)
164 to 165	COc1cc(OC(C)(C)C(=O)O)c(/C=C/C(=O)c2ccc(S(N)(=O)=O)cc2)cc1-c1cccs1
133 to 135	CC(=O)Oc1ccc(C(C)=NOCCOc2ccc(CC3SC(=O)NC3=O)cc2)cc1 (configuration not stated)
149 to 150	COc1cc(S(=O)(=O)c2ccccc2)ccc1N
164 to 165	O=C1O[C@@H](CN2CCC(Cc3ccc(F)cc3)CC2)CN1c1ccc(O)cc1
124 to 125	Cc1oc(-c2cccc(CCc3ccccc3)c2)nc1CCOc1ccc(OC(C)(C)C(=O)O)cc1
195 to 196	COC(=O)c1cc(N)c(Oc2cc(C)cc(C)c2)c(S(N)(=O)=O)c1
85.4	CCCCCCCCCCCCCCOc1ccc(C(=O)Oc2ccc(-c3ncc(C(=O)O[C@@H](C)CCCCCC)cn3)cc2)cc1
184 to 185	CC(C)(C)C(NC(=O)c1ccc(Cl)cc1)NC(=NC#N)NCc1ccccn1 (configuration not stated)
257	O=C(Nc1cccc(S(=O)(=O)NC2CC2)c1)c1cnn2c(C(F)(F)F)cc(-c3ccc(Cl)cc3)nc12
85 to 86.5	CCOCC(O)COc1cccc2oc(-c3ccccc3)cc(=O)c12 (configuration not stated)

melting point [°C]	SMILES
96 to 98	COc1ccc(C[C@@H](C(=O)O)[C@@H](O)c2ccc(F)cc2)cc1 (racemic)
124 to 125	Cc1oc(-c2ccco2)nc1COc1ccc(CON=C(CCC(=O)O)c2ccccc2)cc1
224 to 226	O=C(NCCc1ccccc1)Nc1ccc(CN2C(=O)[C@H]3CCC[C@H]3N(C(=O)CCl)c3ccccc32)cc1 (relative stereo)
111 to 114	COc1cc(C=CC(=O)c2ccc(O)c(OC)c2)ccc1O
144 to 145	CCOC(=O)[C@H](Cc1ccc(O)cc1)NC(=O)c1c(F)cccc1Cl
110 to 112	COC(=O)c1ccc(OCC2CC(=O)N(c3ccc(C)cc3)C2)cc1 (configuration not stated)
223 to 225	Cc1ccc2c(c1)nc(C)c(=O)n2-c1ccc(Cl)cc1
95 to 100	COc1ccc(Cn2ncnc2CO)cc1
122 to 124	C=CC(=O)N1CC(c2ccc(Cl)cc2)Sc2ccccc21 (configuration not stated)
264 to 266	Cc1cc(N2CC=C(C(N)=O)CC2)c2cccc(-c3ccc(Cl)cc3Cl)c2n1
129 to 131	COC(=O)CCc1cc2cc(Cl)ccc2n1S(=O)(=O)c1ccc(F)cc1
206 to 208	O=C(Nc1ccc2cc(CN3CCCC3)cnc2c1F)c1ccc(-c2ccc(Cl)cc2)cc1
47 to 49	COc1cc(OCCCCl)ccc1C(C)=O
135 to 136	COc1ccc(C(=O)c2c(CBr)n(C(C)=O)c(=O)n2C(C)=O)cc1
219 to 221	CN(C)c1ccc(-c2cc(-c3ccnc4c(C(=O)c5cccs5)cnn34)ccc2F)cc1
225 to 262	Cn1ccc2ccc(N3Cc4c(cccc4[N+](=O)[O-])C3=O)cc21
